Values quoted from earlier work, collected in patent US7265128B2, “3-amino-4-phenylbutanoic acid derivatives as dipeptidyl peptidase inhibitors for the treatment or prevention of diabetes” (Merck & Co., Inc., priority 2003, dated 2007).

Columns and labels:
DP-IV = target: T1, DP-IV (Homo sapiens, UniProt P27487)
T1 construct: GRF is rapidly degraded in plasma to GRF[3-44]

mouse = details: cyclophosphamide-induced neutropenia
rats = details: survival doubled from day 7

T1 sequence (P27487 whole entry): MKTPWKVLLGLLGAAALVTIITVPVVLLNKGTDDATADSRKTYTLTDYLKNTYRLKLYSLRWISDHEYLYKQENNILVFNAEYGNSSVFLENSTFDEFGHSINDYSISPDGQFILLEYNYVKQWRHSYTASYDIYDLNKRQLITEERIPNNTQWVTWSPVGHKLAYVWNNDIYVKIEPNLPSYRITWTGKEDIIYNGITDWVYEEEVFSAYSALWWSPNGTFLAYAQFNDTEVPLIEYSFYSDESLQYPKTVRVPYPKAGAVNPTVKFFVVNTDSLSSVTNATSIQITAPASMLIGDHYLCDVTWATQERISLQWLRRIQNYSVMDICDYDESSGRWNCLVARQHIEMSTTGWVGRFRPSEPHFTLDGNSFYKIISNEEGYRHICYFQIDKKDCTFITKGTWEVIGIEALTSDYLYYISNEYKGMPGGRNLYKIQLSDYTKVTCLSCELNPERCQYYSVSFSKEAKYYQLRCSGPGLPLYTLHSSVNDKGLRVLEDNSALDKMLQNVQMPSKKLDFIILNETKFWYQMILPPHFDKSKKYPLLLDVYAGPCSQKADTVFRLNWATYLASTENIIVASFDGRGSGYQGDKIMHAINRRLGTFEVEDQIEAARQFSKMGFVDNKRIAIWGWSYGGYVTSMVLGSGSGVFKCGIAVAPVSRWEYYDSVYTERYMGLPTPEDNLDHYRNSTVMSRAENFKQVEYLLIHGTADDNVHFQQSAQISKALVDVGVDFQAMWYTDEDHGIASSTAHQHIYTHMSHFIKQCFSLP

diprotin A
degradation of GRF in plasma to GRF[3-44] (DP-IV): prevented

CC(C)[C@H](N)C(=O)N1CCC[C@H]1B(O)O [Val-Boro-Pro]
hematopoiesis (mouse): stimulated hematopoiesis

CC(C)N1CCC(c2ccccc2)(c2ccccc2)CC1 [Prodipine, Pro-Pro-diphenyl-phosphonate]
cardiac allograft survival (rats): 14 day
